Laboratory results from patent publication US6093732A, “4-hydroxyquinoline-3-carboxamides and hydrazides as antiviral agents” (Pharmacia & Upjohn Company, priority 1998, dated 2000).

Columns and labels:
Type in all cases: biochemical
VZV polymerase = VZV polymerase (Varicella-zoster virus, UniProt P09252); assay: VZV polymerase assay (procedure similar to the HCMV polymerase SPA); settings: Table 1, read-out: Antiviral Selective Polymerase IC50 Values, VZV
Protocol: (§1) The HCMV polymerase assay is performed using a scintillation proximity assay (SPA) as described in several references, such as N. D. Cook, et al., Pharmaceutical Manufacturing International, pages 49-53 (1992); K. Takeuchi, Laboratory Practice, September issue (1992); U.S. Pat. No. 4,568,649 (1986); which are incorporated by reference herein. Reactions are performed in 96-well plates. The assay is conducted in 100 μl volume with 5.4 mM HEPES (pH 7.5), 11.7 mM KCl, 4.5 mM MgCl2, 0.36 mg/ml BSA, and 90 nM ^3 H-dTTP. Assays are run with and without CHAPS, (3-[(3-Cholamidopropyl)-dimethylammonio]-1-propane-sulfonate) at a final concentration of 2 mM. HCMV polymerase is diluted in enzyme dilution buffer containing 50% glycerol, 250 mM NaCl, 10 mM HEPES (pH 7.5), 100 μg/ml BSA, and 0.01% sodium azide. The HCMV polymerase, which is expressed in recombinant baculovirus-infected SF-9 cells and purified according to literature procedures, is added at 10% (or 10 μl) of the final reaction volume, i.e., 100 μl. Compounds are diluted in 50% DMSO and 10 μl are added to each well. Control wells contain an equivalent concentration of DMSO. Unless noted otherwise, reactions are initiated via the addition of 6 nM biotinylated poly(dA)-oligo(dT) template/primer to reaction mixtures containing the enzyme, substrate, and compounds of interest. Plates are incubated in a 25° C. or 37° C. H2 O bath and terminated via the addition of 40 μl/reaction of 0.5 M EDTA (pH 8) per well. Reactions are terminated within the time-frame during which substrate incorporation is linear and varied depending upon the enzyme and conditions used, i.e., 30 min. for HCMV polymerase. Ten μl of streptavidin-SPA beads (20 mg/ml in PBS/10% glycerol) are added following termination of the reaction. Plates are incubated 10 min. at 37° C., then equilibrated to room temperature, and counted on a Packard Topcount. Linear regressions are performed and IC50 's are calculated using computer software.
(§2) A modified version of the above HCMV polymerase assay is performed as described above, but with the following changes: Compounds are diluted in 100% DMSO until final dilution into assay buffer. In the previous assay, compounds are diluted in 50% DMSO. 4.5 mM dithiotherotol (DTT) is added to the polymerase buffer. […] Other viral polymerase assays are performed using procedures similar to those described above.

HCMV polymerase = target: T1, HCMV polymerase (Human cytomegalovirus, UniProt P08546); assay: HCMV polymerase scintillation proximity assay (SPA), modified version; settings: CMV polymerase; Table 1; modified assay with 4.5 mM DTT, compounds in 100% DMSO; read-out: Antiviral Selective Polymerase IC50 Values, CMV
T1 construct: made in house; host or cells: recombinant baculovirus-infected SF-9 cells
T1 sequence (P08546 whole entry): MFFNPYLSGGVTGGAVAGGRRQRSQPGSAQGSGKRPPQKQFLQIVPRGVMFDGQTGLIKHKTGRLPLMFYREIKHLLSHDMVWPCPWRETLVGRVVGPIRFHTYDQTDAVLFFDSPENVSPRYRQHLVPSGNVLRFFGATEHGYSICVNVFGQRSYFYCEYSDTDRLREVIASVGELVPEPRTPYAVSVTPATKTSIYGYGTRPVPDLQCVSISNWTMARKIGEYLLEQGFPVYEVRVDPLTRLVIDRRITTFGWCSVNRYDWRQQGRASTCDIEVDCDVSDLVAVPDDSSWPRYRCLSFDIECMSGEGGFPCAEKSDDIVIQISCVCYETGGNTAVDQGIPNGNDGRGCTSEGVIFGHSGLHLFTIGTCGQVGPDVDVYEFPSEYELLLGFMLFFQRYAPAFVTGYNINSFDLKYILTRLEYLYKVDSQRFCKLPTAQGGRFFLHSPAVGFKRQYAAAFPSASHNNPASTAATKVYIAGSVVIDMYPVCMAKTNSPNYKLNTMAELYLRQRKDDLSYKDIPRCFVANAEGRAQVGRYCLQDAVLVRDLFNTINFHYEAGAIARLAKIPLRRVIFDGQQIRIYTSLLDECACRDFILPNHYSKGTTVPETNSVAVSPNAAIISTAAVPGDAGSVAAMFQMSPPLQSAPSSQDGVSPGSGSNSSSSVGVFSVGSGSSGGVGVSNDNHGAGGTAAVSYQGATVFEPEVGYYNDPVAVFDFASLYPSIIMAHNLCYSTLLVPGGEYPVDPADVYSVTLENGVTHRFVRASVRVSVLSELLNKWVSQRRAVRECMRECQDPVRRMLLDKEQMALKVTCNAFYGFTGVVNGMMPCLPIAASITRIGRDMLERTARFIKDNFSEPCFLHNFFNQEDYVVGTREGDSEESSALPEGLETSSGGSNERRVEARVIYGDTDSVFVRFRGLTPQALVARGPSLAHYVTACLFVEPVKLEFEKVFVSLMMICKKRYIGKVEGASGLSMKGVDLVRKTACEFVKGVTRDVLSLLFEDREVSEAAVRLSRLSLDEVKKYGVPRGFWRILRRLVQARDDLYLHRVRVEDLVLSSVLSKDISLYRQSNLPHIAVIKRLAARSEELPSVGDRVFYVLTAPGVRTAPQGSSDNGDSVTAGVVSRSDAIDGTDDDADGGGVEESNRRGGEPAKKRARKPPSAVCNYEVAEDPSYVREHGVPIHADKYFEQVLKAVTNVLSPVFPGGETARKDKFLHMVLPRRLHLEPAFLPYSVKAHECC
How it was run: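 SPA measuring 3H-dTTP (90 nM) incorporation on 6 nM biotinylated poly(dA)-oligo(dT) by SF-9-expressed enzyme, pH 7.5 HEPES/KCl/MgCl2/BSA buffer with or without 2 mM CHAPS. Run at 25° C or 37° C, stopped with EDTA while linear (HCMV 30 min); IC50 from linear regression. Modified format adds 4.5 mM DTT, compounds diluted in 100% DMSO.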

HSV polymerase = HSV polymerase (Human herpesvirus 1, UniProt P04293); assay: HSV polymerase assay (procedure similar to the HCMV polymerase SPA); settings: Table 1, read-out: Antiviral Selective Polymerase IC50 Values, HSV
Sequence of HSV polymerase (P04293 whole entry): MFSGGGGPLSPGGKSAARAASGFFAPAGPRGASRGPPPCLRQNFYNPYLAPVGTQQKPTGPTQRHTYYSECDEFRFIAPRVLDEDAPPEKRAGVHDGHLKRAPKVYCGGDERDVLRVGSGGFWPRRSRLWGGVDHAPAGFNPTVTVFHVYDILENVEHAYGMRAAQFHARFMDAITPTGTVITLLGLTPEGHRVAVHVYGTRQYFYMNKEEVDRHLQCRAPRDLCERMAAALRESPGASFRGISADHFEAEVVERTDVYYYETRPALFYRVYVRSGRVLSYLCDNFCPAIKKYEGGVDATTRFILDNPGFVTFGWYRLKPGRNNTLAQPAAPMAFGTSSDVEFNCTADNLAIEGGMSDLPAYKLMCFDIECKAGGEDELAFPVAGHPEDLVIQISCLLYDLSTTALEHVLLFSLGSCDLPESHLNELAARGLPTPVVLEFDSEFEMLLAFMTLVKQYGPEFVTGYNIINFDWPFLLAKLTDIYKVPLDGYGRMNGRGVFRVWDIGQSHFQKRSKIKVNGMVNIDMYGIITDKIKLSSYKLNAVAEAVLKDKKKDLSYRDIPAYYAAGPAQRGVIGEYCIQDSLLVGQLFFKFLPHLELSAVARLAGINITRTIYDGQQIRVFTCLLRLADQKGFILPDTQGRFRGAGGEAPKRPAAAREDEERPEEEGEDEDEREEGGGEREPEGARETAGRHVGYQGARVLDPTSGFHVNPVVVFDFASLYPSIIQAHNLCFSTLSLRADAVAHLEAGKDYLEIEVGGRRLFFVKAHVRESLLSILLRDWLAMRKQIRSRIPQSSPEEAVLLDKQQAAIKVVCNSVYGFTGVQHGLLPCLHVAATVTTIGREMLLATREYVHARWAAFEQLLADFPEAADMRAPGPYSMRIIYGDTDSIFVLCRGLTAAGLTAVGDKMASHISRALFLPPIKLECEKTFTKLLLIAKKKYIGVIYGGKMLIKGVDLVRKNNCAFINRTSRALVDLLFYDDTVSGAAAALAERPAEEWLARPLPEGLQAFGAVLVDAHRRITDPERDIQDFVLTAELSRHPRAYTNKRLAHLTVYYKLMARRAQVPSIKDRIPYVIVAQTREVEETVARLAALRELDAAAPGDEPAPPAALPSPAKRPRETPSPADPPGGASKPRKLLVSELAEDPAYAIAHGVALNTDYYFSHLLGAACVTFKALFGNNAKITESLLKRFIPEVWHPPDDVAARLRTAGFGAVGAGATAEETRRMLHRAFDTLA
Protocol: as §1, §2

Sequence of VZV polymerase (P09252 whole entry): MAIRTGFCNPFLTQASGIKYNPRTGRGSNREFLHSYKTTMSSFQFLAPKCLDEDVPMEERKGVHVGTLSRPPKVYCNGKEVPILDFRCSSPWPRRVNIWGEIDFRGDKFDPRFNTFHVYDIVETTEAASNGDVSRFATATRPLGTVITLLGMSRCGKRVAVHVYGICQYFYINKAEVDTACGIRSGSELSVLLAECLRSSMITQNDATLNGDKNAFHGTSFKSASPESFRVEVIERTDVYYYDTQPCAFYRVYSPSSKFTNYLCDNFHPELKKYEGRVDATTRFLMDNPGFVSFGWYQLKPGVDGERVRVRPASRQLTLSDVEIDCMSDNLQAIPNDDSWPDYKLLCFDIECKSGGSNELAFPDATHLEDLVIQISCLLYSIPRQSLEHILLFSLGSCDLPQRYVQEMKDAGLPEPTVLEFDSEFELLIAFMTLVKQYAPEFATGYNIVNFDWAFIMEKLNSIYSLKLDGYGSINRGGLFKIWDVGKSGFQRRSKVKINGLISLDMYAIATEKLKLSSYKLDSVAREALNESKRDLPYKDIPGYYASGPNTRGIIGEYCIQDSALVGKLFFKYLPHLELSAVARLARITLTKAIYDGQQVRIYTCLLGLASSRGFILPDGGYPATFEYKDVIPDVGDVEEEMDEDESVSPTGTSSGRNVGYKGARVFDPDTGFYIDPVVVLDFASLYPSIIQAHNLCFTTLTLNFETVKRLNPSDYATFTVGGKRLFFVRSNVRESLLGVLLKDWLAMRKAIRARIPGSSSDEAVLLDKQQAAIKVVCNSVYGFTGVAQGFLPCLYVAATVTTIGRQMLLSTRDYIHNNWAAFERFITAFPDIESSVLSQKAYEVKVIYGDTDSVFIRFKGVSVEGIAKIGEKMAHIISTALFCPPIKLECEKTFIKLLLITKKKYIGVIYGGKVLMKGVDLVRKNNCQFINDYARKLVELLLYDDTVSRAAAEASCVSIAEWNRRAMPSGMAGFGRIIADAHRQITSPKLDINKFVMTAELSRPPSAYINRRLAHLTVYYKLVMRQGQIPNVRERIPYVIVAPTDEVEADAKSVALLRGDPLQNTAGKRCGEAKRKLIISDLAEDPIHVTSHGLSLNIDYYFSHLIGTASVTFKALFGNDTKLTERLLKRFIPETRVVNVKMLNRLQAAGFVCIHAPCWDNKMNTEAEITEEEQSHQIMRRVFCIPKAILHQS

Row | IC50 (VZV polymerase) | IC50 (HCMV polymerase) | IC50 (HSV polymerase) | SMILES
1 |  | 10.1 µM |  | Nc1ccc(CNS(=O)(=O)c2cc(F)c3ncc(C(=O)NCc4ccc(Cl)cc4)c(O)c3c2)cc1 [Example 266, 6-{[(4-aminobenzyl)amino]sulfonyl}-N-(4-chlorobenzyl)-8-fluoro-4-hydroxy-3-quinolinecarboxamide]
2 |  | 52.2 µM |  | CC(C)(C)OP(=O)(OCCCc1cc(F)c2ncc(C(=O)NCc3ccc(Cl)cc3)c(O)c2c1)OC(C)(C)C [Example 267, Di(tert-butyl) 3-(3-{[(4-chlorobenzyl)amino]carbonyl}-8-fluoro-4-hydroxy-6-quinolinyl)propyl phosphate]
3 |  | 9.5 µM |  | O=C(NCc1ccc(Cl)cc1)c1cnc2c(F)cc(CCCOP(=O)(O)O)cc2c1O [Example 268, 3-(3-{[(4-Chlorobenzyl)amino]carbonyl}-8-fluoro-4-hydroxy-6-quinolinyl)propyl dihydrogen phosphate]
4 |  | 9.8 µM |  | O=C(NCc1ccc(Cl)cc1)c1cnc2ccc(CCCOP(=O)(O)O)cc2c1O [Example 269, 3-(3-{[(4-Chlorobenzyl)amino]carbonyl-4-hydroxy-6-quinolinyl)propyldihydrogen phosphate]
5 |  | 2.8 µM |  | CC(C)(C)O[PH](=O)OCCCc1ccc2ncc(C(=O)NCc3ccc(Cl)cc3)c(O)c2c1 (centres unmarked) [Example 270, tert-Butyl 3-(3-{[(4-chlorobenzyl)amino]carbonyl}-4-hydroxy-6-quinolinyl)propyl phosphonate]
6 |  | 20.4 µM |  | CC(C)(C)O[PH](=O)OCCCc1cc(F)c2ncc(C(=O)NCc3ccc(Cl)cc3)c(O)c2c1 (centres unmarked) [Example 271, tert-Butyl 3-(3-{[(4-chlorobenzyl)amino]carbonyl}-8-fluoro-4-hydroxy-6-quinolinyl)propyl phosphonate]
7 |  | 8.6 µM |  | O=C(NCc1ccc(Cl)cc1)c1cnc2ccc(CCCO[PH](=O)O)cc2c1O [Example 272, 3-(3-{[(4-Chlorobenzyl)amino]carbonyl}-4-hydroxy-6-quinolinyl)propyl hydrogen phosphonate]
8 |  | 28.4 µM |  | CN(CCS(=O)(=O)O)C(=O)CCCCCCC(=O)OCC#Cc1cc(F)c2ncc(C(=O)NCc3ccc(Cl)cc3)c(O)c2c1 [Example 275]
9 |  | 0.77 µM |  | O=C(NCc1ccc(Cl)cc1)c1cnc2cc(S(=O)(=O)NCc3cccc4ccccc34)ccc2c1O [Example 277, N-(4-Chlorobenzyl)-4-hydroxy-7-{[(1-naphthylmethyl)amino]-sulfonyl}-3-quinolinecarboxamide]
10 |  | 2.1 µM |  | CSc1ccc2c(O)c(C(=O)NCc3ccc(Cl)cc3)cnc2c1 [Example 278, N-(4-Chlorobenzyl)-4-hydroxy-7-(methylsulfanyl)-3-quinolinecarboxamide]
11 |  | 4.9 µM |  | O=C(NCc1ccc(Cl)cc1)c1cnc2cc3c(cc2c1O)OCO3 [Example 279, N-(4-Chlorobenzyl)-8-hydroxy[1,3]dioxolo [4,5-g]quinoline-7-carboxamide]
12 |  | 57.8 µM |  | O=C(c1ccccc1)c1ccc2ncc(C(=O)NCc3ccc(Cl)cc3)c(O)c2c1 [Example 280, 6-Benzoyl-N-(4-chlorobenzyl)-4-hydroxy-3-quinolinecarboxamide]

The next lines start with the molecule.

Row | SMILES | IC50 (VZV polymerase) | IC50 (HCMV polymerase) | IC50 (HSV polymerase)
13 | O=C(NCc1ccc(Cl)cc1)c1cnc2cc(C(F)(F)F)ccc2c1O [Example 1, N-[(4-Chlorophenyl)methyl]-4-hydroxy-7-(trifluoromethyl)-3-quinoline-carboxamide] | 13.3 µM | 38.2 µM | 35.5 µM
14 | Nc1ccc2c(O)c(C(=O)NCc3ccc(Cl)cc3)cnc2c1 [Example 2, 7-Amino-N-[(4-chlorophenyl)methyl]-4-hydroxy-3-quinolinecarboxamide] | 0.6 µM | 5.2 µM | 3.5 µM
15 | O=C(NCc1ccc(Cl)cc1)c1cnc2ccccc2c1O [Example 6, N-[(4-Chlorophenyl)methyl]-4-hydroxy-3-quinolinecarboxamide] | 0.7 µM | 7.6 µM | 2.3 µM
16 | COc1ccc2c(O)c(C(=O)NCc3ccc(Cl)cc3)cnc2c1 [Example 7, N-[(4-Chlorophenyl)methyl]-4-hydroxy-7-methoxy-3-quinoline-carboxamide] | 0.7 µM | 4.9 µM | 5.5 µM
17 | O=C(NCc1ccc(Cl)cc1)c1cnc2cc(F)ccc2c1O [Example 9, N-[(4-Chlorophenyl)methyl]-7-fluoro-4-hydroxy-3-quinolinecarboxamide] | 2.5 µM | < 2.3 µM | < 2.3 µM
18 | O=C(NCc1ccc(Cl)cc1)c1cnc2ccc(F)cc2c1O [Example 10, N-[(4-Chlorophenyl)methyl]-6-fluoro-4-hydroxy-3-quinoline-carboxamide] | 3.9 µM | 9.7 µM | 14 µM
19 | O=C(NCc1ccc(Cl)cc1)c1cnc2c(F)cccc2c1O [Example 12, N-[(4-Chlorophenyl)methyl]-8-fluoro-4-hydroxy-3-quinoline-carboxamide] | < 3.1 µM | 1.4 µM | 3.4 µM
20 | O=C(NCc1ccc(Cl)cc1)c1cnc2ccc([N+](=O)[O-])cc2c1O [Example 13, N-[(4-Chlorophenyl)methyl]-4-hydroxy-6-nitro-3-quinoline-carboxamide] | < 2.3 µM | < 2.3 µM | 3 µM
21 | O=C(NCc1ccc(Cl)cc1)c1cnc2c(F)c(F)c(F)c(F)c2c1O [Example 14, N-[(4-Chlorophenyl)methyl]-5,6,7,8-tetrafluoro-4-hydroxy-3-quinolinecarboxamide] | 3.6 µM | 11.5 µM | 7.9 µM
22 | O=C(NCc1ccc(Cl)cc1)c1cnc2c(F)c(F)c(F)cc2c1O [Example 15, N-[(4-Chlorophenyl)methyl]-6,7,8-trifluoro-4-hydroxy-3-quinolinecarboxamide] | 13.1 µM | 20.8 µM | 22 µM
23 | O=C(NNc1ccc(Cl)cc1)c1cnc2c(F)c(F)c(F)cc2c1O [Example 16, 6,7,8-Trifluoro-4-hydroxy-3-quinolinecarboxylic acid 2-(4-chlorophenyl)hydrazide] | 1.3 µM | 2.7 µM | 2.8 µM
24 | CC(=O)Nc1ccc2c(O)c(C(=O)NCc3ccc(Cl)cc3)cnc2c1 [Example 25, 7-(Acetylamino)-N-[(4-chlorophenyl)methyl]-4-hydroxy-3-quinolinecarboxamide] | 8.4 µM | 13.5 µM | 18.5 µM
25 | CS(=O)(=O)Nc1ccc2c(O)c(C(=O)NCc3ccc(Cl)cc3)cnc2c1 [Example 26, N-[(4-Chlorophenyl)methyl]-4-hydroxy-7-[(methylsulfonyl)-amino]-3-quinolinecarboxamide] | 14 µM | 17 µM | 25 µM
26 | Nc1ccc2ncc(C(=O)NCc3ccc(Cl)cc3)c(O)c2c1 [Example 28, 6-Amino-N-[(4-chlorophenyl)methyl]-4-hydroxy-3-quinoline-carboxamide] | 8.3 µM | 18 µM | 19.7 µM
27 | CS(=O)(=O)Nc1ccc2ncc(C(=O)NCc3ccc(Cl)cc3)c(O)c2c1 [Example 29, N-[(4-Chlorophenyl)methyl]-4-hydroxy-6-[(methylsulfonyl)-amino]-3-quinolinecarboxamide] | 25.2 µM | 34.1 µM | 70.6 µM
28 | CC(C)(N)CNS(=O)(=O)c1cc(F)c2ncc(C(=O)NCc3ccc(Cl)cc3)c(O)c2c1 [Example 264, 6-{[(2-amino-2-methylpropyl)amino]sulfonyl}-N-(4-chlorobenzyl)-8-fluoro-4-hydroxy-3-quinolinecarboxamide] |  | 90.2 µM | 
29 | NC(=O)CNS(=O)(=O)c1cc(F)c2ncc(C(=O)NCc3ccc(Cl)cc3)c(O)c2c1 [Example 265, 6-{[(2-amino-2-oxoethyl)amino]sulfonyl}-N-(4-chlorobenzyl)-8-fluoro-4-hydroxy-3-quinolinecarboxamide] |  | 11.4 µM | 
